Results on six molecules are retold here after patent publication US5723576A, “Thrombin inhibitors, the preparation thereof and the use thereof for therapeutical, prophylactic and diagnostic applications” (Development Biotechnological Processes S.N.C., priority 1993, dated 1998).

pKi: −log10 of the molar value. Where two headings read alike, the source gives them in different places. Square brackets hold non-standard residues; d marks the D form. Peptide text beside a SMILES is read from it. 2Nal = N[C@@H](Cc1ccc2ccccc2c1)C(=O)O; hPhe = N[C@@H](CCc1ccccc1)C(=O)O; Cha = N[C@@H](CC1CCCCC1)C(=O)O; Chg = N[C@H](C(=O)O)C1CCCCC1; Aib = CC(C)(N)C(=O)O; βAla = NCCC(=O)O Bounds are passed on as bounds.

The target of one series is T1, human a-thrombin (Homo sapiens, UniProt P00734).
T1 construct: human a-thrombin
The experiment in a line: In vitro resistance of the peptides to enzyme hydrolysis by thrombin. It is filed as in vitro ADME. Conditions: Tris/HCl buffer pH 7.8, 37° C. Here is the method:
(§1) The resistance of the compounds of the present invention versus plasmatic proteases was evaluated in vitro in two groups of tests. In the first one, the resistance to proteolysis of thrombin itself was tested incubating the claimed compounds in the presence of thrombin and analysing the mixture at different times. In the second one, the claimed compounds were incubated in plasma of healthy volunteers and, after filtration of the plasma proteins, the supernatants were analyzed by HPLC and capillary electrophoresis.
(§2) In vitro determination of the peptide resistance to enzyme hydrolysis by thrombin.
(§3) 97.2 nmol of hirunorm-I (286 μg), hirunorm-II (285 μg), hirunorm-III (293 μg), were incubated separately with 0.972 nmol of human a-thrombin (35 μg, 3110 Units NIH/mg) in 800 μL of 0.05M Tris/HCl buffer, 0.1M NaCl at pH-7.8 and a temperature of 37° C. 50 μL Aliquots were diluted with 200 μL of 100 mN H3 PO4 and analyzed at pre-set times by capillary electrophoresis on a […] silica Waters capillary, using a Waters Quanta 4000 apparatus fitted with an UV detection at 214 nm. The analyses were carried out at a constant voltage of 18 KV, using a 100 mN phosphoric acid buffer for 25 min. The eluted peaks were collected and analyzed by Fab mass spectrometry.
(§4) ^.sctn. The factors tt and tp are the halving times (min) o
(§5) the inhibitor concentrations in the presence of equimolar amounts of
(§6) thrombin, respectively both alone and in human plasma.

The nature of series [1]: In vitro resistance of the peptides to hydrolysis by plasma proteases. It is filed as in vitro ADME. As to conditions: human plasma from healthy donors, 37° C.; read-out: τp: halving time of the inhibitor concentration in human plasma. As to the method: as §1
In vitro determination of the peptides resistance to hydrolysis by plasma proteases.
[…] of hirunorm-I […], hirunorm-II (569 μg), hirunorm-III (585 μg), were separately incubated with 1600 μL of human plasma from heal thy donors at 37° C. for different times. 50 μL aliquots were added with 200 μL of 100 mN H3 PO4. The supernatants were analyzed at pre-set times by HPLC on a Vydac C18 0.46×25 cm column with a straight acetonitrile gradient containing 0.1% (v/v) of trifluoroacetic acid (phase B) against 0.1% (v/v) aqueous trifluoroacetic acid (phase A), from 5 to 70% in B in 35 min at a flow rate of 1 mL/min, with detection at 210 nm. The eluted peaks were collected and analyzed by capillary electrophoresis on a […]×60 cm fused silica Waters capillary, fitted with a UV detector at 214 nm. The analyses were carried out at a constant voltage of 18 KV, using a buffer 100 mN acid phosphoric for 25 min. The eluted peaks were then analyzed by means of Fab mass spectrometry.
as §4, §5, §6

Series [2] concerns the target T2, thrombin (Homo sapiens, UniProt P00734). The experiment in a line: Inhibition of thrombin-mediated hydrolysis of Chromozym TH (Ki). Conditions: read-out: Ki: hydrolysis inhibition constant of a chromogenic substrate. It is filed as biochemical. Here is the method: Moreover, the efficacy of the products of the present invention was also evaluated determining the inhibition constants Ki versus thrombin, using chromogenic substrates.
The inhibition of the hydrolysis, mediated by thrombin, of Chromozym TH by the peptides of the present invention was evaluated according to the literature (Stone, S. R., Hofsteenge, J., Biochemistry, 25, 4622, (1986).
°The hydrolysis inhibition constants of a chromogenic substrate ar

Another series has as its system T3, human α-thrombin.
T3 construct: human a-thrombin
The experiment in a line: In vitro resistance of the peptides to enzyme hydrolysis by thrombin. In kind it is in vitro ADME. Conditions: isolated enzyme thrombin; human a-thrombin, Tris/HCl buffer pH 7.8, 37° C.; read-out: τt: halving time of the inhibitor concentration in the presence of thrombin alone. Here is the method: as §1, §2, §3, §4, §5, §6

Series [3] has as its target T2, thrombin. Conditions: non covalent 1:1 complex; read-out: Ki of hirudin binding to thrombin; cited from earlier work.

Broadly, the pKi is the Ki on a negative log10 scale, so that one unit is a factor of ten.

In the case of `CC[C@H](C)[C@H](N)C(=O)N[C@@H](CCCNC(=N)N)C(=O)N[C@@H](Cc1ccccc1)C(=O)N[C@H](C(=O)N[C@@H](CC(=O)O)C(=O)N[C@H](C)C(=O)NCC(=O)NCCC(=O)N1CCC[C@H]1C(=O)N[C@@H](CCC(=O)O)C(=O)N[C@@H](CO)C(=O)N[C@@H](Cc1c[nH]cn1)C(=O)N[C@@H](CCc1ccccc1)C(=O)NCC(=O)NCC(=O)N[C@@H](CC(=O)O)C(=O)N[C@@H](Cc1ccc(O)cc1)C(=O)N[C@@H](CCC(=O)O)C(=O)N[C@@H](CCC(=O)O)C(=O)N[C@H](C(=O)N1CCC[C@H]1C(=O)NC(C)(C)C(=O)NC(C)(C)C(=O)N[C@@H](Cc1ccc(OP(=O)(O)O)cc1)C(=O)N[C@@H](CC1CCCCC1)C(=O)N[C@H](CCC(=O)O)C(=O)O)[C@@H](C)CC)[C@@H](C)O` [Hirunorm-III] (HELM PEPTIDE1{I.R.F.T.D.[dA].G.[bAla].P.E.S.H.[O=C([C@H](CCc1ccccc1)N[*:1])[*:2]].G.G.D.Y.E.E.I.P.[Aib].[Aib].[O=C([C@H](Cc1ccc(OP(=O)(O)O)cc1)N[*:1])[*:2]].[Cha].[dE]}$$$$V2.0), on human a-thrombin, the “τt: halving time of the inhibitor concentration in the presence of thrombin alone” value was over 480 min. In addition, the half-life at 1.21 µM in series [1] worked out at 480 min. Besides, the pKi on thrombin [2] is 9.00.
On the same counts, the results for `CC[C@H](C)[C@H](N)C(=O)N[C@@H](CCCNC(=N)N)C(=O)N[C@@H](Cc1ccccc1)C(=O)N[C@H](C(=O)N[C@@H](CC(=O)O)C(=O)N[C@H](C)C(=O)NCC(=O)NCCC(=O)N1CCC[C@H]1C(=O)N[C@@H](CCC(=O)O)C(=O)N[C@@H](CO)C(=O)N[C@@H](Cc1c[nH]cn1)C(=O)N[C@@H](CCc1ccccc1)C(=O)NCC(=O)NCC(=O)N[C@@H](CC(=O)O)C(=O)N[C@@H](Cc1ccc(O)cc1)C(=O)N[C@@H](CCC(=O)O)C(=O)N[C@@H](CCC(=O)O)C(=O)N[C@H](C(=O)N1CCC[C@H]1C(=O)NC(C)(C)C(=O)NC(C)(C)C(=O)N[C@@H](Cc1ccc(O)cc1)C(=O)N[C@@H](CC1CCCCC1)C(=O)N[C@H](CCC(=O)O)C(=O)O)[C@@H](C)CC)[C@@H](C)O` [Hirunorm-II] (HELM PEPTIDE1{I.R.F.T.D.[dA].G.[bAla].P.E.S.H.[O=C([C@H](CCc1ccccc1)N[*:1])[*:2]].G.G.D.Y.E.E.I.P.[Aib].[Aib].Y.[Cha].[dE]}$$$$V2.0) are over 480 min, 480 min and 8.59.
`CC[C@H](C)[C@H](N)C(=O)N[C@@H](CCCNC(=N)N)C(=O)N[C@@H](Cc1ccc(O)cc1)C(=O)N[C@H](C(=O)N[C@@H](CC(=O)O)C(=O)N[C@H](C)C(=O)NCCC(=O)NCCC(=O)N1CCC[C@H]1C(=O)N[C@@H](CCC(=O)O)C(=O)N[C@@H](CC(N)=O)C(=O)N[C@@H](Cc1c[nH]cn1)C(=O)N[C@@H](CC(N)=O)C(=O)N[C@@H](CC(N)=O)C(=O)NCC(=O)N[C@@H](CC(=O)O)C(=O)N[C@@H](Cc1ccccc1)C(=O)N[C@@H](CCC(=O)O)C(=O)N[C@@H](CCC(=O)O)C(=O)N[C@H](C(=O)N1CCC[C@H]1C(=O)NC(C)(C)C(=O)NC(C)(C)C(=O)N[C@@H](Cc1ccc(O)cc1)C(=O)N[C@@H](CC(C)C)C(=O)N[C@@H](CCC(=O)O)C(=O)O)[C@@H](C)CC)[C@@H](C)O` [Hirunorm-I] (HELM PEPTIDE1{I.R.Y.T.D.[dA].[bAla].[bAla].P.E.N.H.N.N.G.D.F.E.E.I.P.[Aib].[Aib].Y.L.E}$$$$V2.0): the half-life at 121.5 µM in the series on human α-thrombin was over 480 min. In addition, in series [1], the half-life at 1.21 µM came to 300 min. Besides, on thrombin [2], the pKi is 7.01.
For Hirudin, the pKi on thrombin [3] is 10.20.
`CC[C@H](C)[C@H](NC(=O)[C@H](CCC(=O)O)NC(=O)[C@H](CCC(=O)O)NC(=O)[C@H](Cc1ccc(O)cc1)NC(=O)[C@H](CC(=O)O)NC(=O)CNC(=O)CNC(=O)[C@H](CCc1ccccc1)NC(=O)[C@H](Cc1c[nH]cn1)NC(=O)[C@H](CO)NC(=O)[C@H](CCC(=O)O)NC(=O)[C@@H]1CCCN1C(=O)CCNC(=O)CNC(=O)[C@@H](C)NC(=O)[C@H](CC(=O)O)NC(=O)[C@@H](NC(=O)[C@H](Cc1ccc2ccccc2c1)NC(=O)[C@H](CCCNC(=N)N)NC(=O)[C@@H](N)C1CCCCC1)[C@@H](C)O)C(=O)N1CCC[C@H]1C(=O)NC(C)(C)C(=O)NC(C)(C)C(=O)N[C@@H](Cc1ccc(O)cc1)C(=O)N[C@@H](CC1CCCCC1)C(=O)N[C@H](CCC(=O)O)C(=O)O` [Hirunorm-IV] (H-[Chg]R[2Nal]TD[dA]G[βAla]PESH[hPhe]GGDYEEIP[Aib][Aib]Y[Cha][dE]-OH): the negative-log Ki (pKi) on thrombin [2] is 8.59.
The same measure, in the same setting: as for `CC[C@H](C)[C@H](NC(=O)[C@H](CCC(=O)O)NC(=O)[C@H](CCC(=O)O)NC(=O)[C@H](Cc1ccc(O)cc1)NC(=O)[C@H](CC(=O)O)NC(=O)CNC(=O)CNC(=O)[C@H](CCc1ccccc1)NC(=O)[C@H](Cc1c[nH]cn1)NC(=O)[C@H](CO)NC(=O)[C@H](CCC(=O)O)NC(=O)[C@@H]1CCCN1C(=O)CCNC(=O)CNC(=O)[C@@H](C)NC(=O)[C@H](CC(=O)O)NC(=O)[C@@H](NC(=O)[C@H](Cc1ccc2ccccc2c1)NC(=O)[C@@H](NC(=O)[C@@H](N)C1CCCCC1)C(C)C)[C@@H](C)O)C(=O)N1CCC[C@H]1C(=O)NC(C)(C)C(=O)NC(C)(C)C(=O)N[C@@H](Cc1ccc(O)cc1)C(=O)N[C@@H](CC1CCCCC1)C(=O)N[C@H](CCC(=O)O)C(=O)O` [Hirunorm-V] (H-[Chg]V[2Nal]TD[dA]G[βAla]PESH[hPhe]GGDYEEIP[Aib][Aib]Y[Cha][dE]-OH), the figure is 9.00.
